Test results as given in the supplement of paper PMC13386468.

Tests used:
Assay in all cases: IC50 for competition of protein binding to Kinobeads
Conditions in all cases: assay detail: Kinobeads competition in P. falciparum blood-stage lysate
UniProt C0H4M6 = molecular target: UniProt C0H4M6
UniProt C0H516 = molecular target: UniProt C0H516
UniProt C0H571 = molecular target: UniProt C0H571
UniProt C0H5A0 = molecular target: UniProt C0H5A0
UniProt C6KT19 = molecular target: UniProt C6KT19
UniProt O77312 = molecular target: UniProt O77312
UniProt O97313 = molecular target: UniProt O97313
UniProt O97313, sequence (O97313 whole entry): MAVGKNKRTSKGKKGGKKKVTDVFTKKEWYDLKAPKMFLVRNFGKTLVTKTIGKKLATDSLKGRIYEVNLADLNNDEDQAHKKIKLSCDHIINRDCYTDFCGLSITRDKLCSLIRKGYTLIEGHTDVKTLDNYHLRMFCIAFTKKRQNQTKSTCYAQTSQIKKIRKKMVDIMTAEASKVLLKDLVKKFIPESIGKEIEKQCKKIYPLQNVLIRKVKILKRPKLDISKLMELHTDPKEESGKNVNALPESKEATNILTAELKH

UniProt Q5MYR6 = molecular target: UniProt Q5MYR6
UniProt Q76NM3 = molecular target: UniProt Q76NM3
UniProt Q8I0W9 = molecular target: UniProt Q8I0W9
UniProt Q8I1R6 = molecular target: UniProt Q8I1R6
UniProt Q8I1X5 = molecular target: UniProt Q8I1X5
UniProt Q8I2S6 = molecular target: UniProt Q8I2S6
UniProt Q8I353 = molecular target: UniProt Q8I353
UniProt Q8I374 = molecular target: UniProt Q8I374
UniProt Q8I3F0 = molecular target: UniProt Q8I3F0
UniProt Q8I3I5 = molecular target: UniProt Q8I3I5
UniProt Q8I3R0 = molecular target: UniProt Q8I3R0
UniProt Q8I3U9 = molecular target: UniProt Q8I3U9
UniProt Q8I467 = molecular target: UniProt Q8I467
UniProt Q8I467, sequence (Q8I467 whole entry): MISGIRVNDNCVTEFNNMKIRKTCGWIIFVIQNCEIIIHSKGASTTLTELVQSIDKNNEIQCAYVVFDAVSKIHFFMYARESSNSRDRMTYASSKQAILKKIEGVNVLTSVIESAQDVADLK

UniProt Q8I4U5 = molecular target: UniProt Q8I4U5
UniProt Q8I4Y5 = molecular target: UniProt Q8I4Y5
UniProt Q8I586 = molecular target: UniProt Q8I586
UniProt Q8I5D2 = molecular target: UniProt Q8I5D2
UniProt Q8I5D2, sequence (Q8I5D2 whole entry): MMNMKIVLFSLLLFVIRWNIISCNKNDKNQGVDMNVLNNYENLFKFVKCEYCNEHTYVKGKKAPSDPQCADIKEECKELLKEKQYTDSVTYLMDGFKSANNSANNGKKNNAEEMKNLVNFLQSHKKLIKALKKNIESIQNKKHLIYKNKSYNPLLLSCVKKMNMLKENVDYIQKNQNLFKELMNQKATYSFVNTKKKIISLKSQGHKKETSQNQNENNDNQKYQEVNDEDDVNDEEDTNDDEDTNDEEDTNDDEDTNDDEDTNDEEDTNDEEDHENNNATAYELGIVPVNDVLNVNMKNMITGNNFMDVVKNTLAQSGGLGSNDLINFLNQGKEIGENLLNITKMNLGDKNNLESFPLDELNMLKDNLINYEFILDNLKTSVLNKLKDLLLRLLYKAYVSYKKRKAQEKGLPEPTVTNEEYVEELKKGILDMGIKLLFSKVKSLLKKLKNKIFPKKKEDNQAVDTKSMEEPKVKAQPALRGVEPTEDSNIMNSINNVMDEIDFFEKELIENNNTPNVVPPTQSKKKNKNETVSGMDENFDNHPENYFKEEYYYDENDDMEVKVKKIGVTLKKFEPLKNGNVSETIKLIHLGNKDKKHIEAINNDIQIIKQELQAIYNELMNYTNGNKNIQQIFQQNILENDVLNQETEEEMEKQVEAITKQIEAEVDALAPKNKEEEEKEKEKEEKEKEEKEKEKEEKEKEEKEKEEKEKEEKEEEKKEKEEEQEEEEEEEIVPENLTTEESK

UniProt Q8I5H9 = molecular target: UniProt Q8I5H9
UniProt Q8IAV1 = molecular target: UniProt Q8IAV1
UniProt Q8IB24 = molecular target: UniProt Q8IB24
UniProt Q8IB44 = molecular target: UniProt Q8IB44
UniProt Q8IB78 = molecular target: UniProt Q8IB78
UniProt Q8IBC3 = molecular target: UniProt Q8IBC3
UniProt Q8IBM9 = molecular target: UniProt Q8IBM9
UniProt Q8IBN7 = molecular target: UniProt Q8IBN7
UniProt Q8ID43 = molecular target: UniProt Q8ID43
UniProt Q8ID59 = molecular target: UniProt Q8ID59
UniProt Q8IDM3 = molecular target: UniProt Q8IDM3
UniProt Q8IEH3 = molecular target: UniProt Q8IEH3
UniProt Q8IEU2 = molecular target: UniProt Q8IEU2
UniProt Q8IFN9 = molecular target: UniProt Q8IFN9
UniProt Q8IHY0 = molecular target: UniProt Q8IHY0
UniProt Q8IIE7 = molecular target: UniProt Q8IIE7
UniProt Q8IIG6 = molecular target: UniProt Q8IIG6
UniProt Q8IIH7 = molecular target: UniProt Q8IIH7
UniProt Q8IIK4 = molecular target: UniProt Q8IIK4
UniProt Q8IIK4, sequence (Q8IIK4 whole entry): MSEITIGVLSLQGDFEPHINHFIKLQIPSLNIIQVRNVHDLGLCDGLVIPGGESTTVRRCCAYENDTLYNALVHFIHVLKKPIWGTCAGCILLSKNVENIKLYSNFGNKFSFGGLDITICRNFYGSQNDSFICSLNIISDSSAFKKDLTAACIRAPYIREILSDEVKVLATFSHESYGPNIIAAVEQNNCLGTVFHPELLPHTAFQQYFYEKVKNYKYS

UniProt Q8IIW5 = molecular target: UniProt Q8IIW5
UniProt Q8IKS6 = molecular target: UniProt Q8IKS6
UniProt Q8IKV8 = molecular target: UniProt Q8IKV8
UniProt Q8IKW5 = molecular target: UniProt Q8IKW5
UniProt Q8IL41 = molecular target: UniProt Q8IL41
UniProt Q8ILE8 = molecular target: UniProt Q8ILE8
UniProt Q8ILS7 = molecular target: UniProt Q8ILS7
UniProt Q9TY98 = molecular target: UniProt Q9TY98
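Note: native unpurified kinases from lysate captured on beads bearing immobilized kinase inhibitors, with bead-bound kinases quantified by mass spectrometry across compound doses.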

UniProt C0H571, sequence (C0H571 whole entry): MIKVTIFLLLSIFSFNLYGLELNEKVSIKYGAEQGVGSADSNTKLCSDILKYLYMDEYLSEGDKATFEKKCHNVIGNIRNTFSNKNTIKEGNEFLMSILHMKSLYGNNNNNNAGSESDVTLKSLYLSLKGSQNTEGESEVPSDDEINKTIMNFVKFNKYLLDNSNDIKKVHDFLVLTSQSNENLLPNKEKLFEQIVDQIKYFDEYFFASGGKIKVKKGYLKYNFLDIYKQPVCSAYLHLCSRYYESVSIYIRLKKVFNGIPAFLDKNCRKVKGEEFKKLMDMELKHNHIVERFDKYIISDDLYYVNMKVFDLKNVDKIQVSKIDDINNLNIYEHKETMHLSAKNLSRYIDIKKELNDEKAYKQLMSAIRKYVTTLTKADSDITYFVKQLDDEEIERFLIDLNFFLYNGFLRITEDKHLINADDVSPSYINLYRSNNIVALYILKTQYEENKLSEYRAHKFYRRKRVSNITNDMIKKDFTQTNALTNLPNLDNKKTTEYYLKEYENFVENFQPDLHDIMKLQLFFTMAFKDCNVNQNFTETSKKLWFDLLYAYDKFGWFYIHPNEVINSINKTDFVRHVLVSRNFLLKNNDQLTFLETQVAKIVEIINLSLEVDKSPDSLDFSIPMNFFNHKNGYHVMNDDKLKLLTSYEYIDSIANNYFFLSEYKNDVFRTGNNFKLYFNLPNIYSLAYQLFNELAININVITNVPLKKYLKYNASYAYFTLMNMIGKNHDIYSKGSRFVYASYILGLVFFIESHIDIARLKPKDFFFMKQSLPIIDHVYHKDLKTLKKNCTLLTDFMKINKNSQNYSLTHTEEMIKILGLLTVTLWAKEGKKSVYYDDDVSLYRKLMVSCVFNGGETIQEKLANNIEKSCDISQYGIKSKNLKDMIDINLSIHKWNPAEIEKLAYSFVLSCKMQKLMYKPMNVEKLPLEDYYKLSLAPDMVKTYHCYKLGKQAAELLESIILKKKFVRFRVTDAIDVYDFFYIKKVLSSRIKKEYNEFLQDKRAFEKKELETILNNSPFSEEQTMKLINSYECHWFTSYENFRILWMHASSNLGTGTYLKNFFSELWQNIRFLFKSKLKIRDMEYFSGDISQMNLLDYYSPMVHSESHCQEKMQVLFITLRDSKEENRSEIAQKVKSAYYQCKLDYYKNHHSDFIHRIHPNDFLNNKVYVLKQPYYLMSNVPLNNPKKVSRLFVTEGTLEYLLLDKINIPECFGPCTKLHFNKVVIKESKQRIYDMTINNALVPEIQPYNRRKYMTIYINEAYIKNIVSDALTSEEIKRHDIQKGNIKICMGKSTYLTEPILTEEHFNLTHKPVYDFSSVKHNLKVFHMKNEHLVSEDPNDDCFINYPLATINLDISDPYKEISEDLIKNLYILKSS

O=c1[nH]c2ccc(Cl)cc2c(NC2CN3CCC2CC3)c1-c1nc2ccccc2[nH]1 (stereo unspecified) [CHIR-124]
IC50 (UniProt C0H4M6): > 20 µM
IC50 (UniProt C0H516): > 20 µM
IC50 (UniProt C0H571): > 20 µM
IC50 (UniProt C0H5A0): > 20 µM
IC50 (UniProt C6KT19): > 20 µM
IC50 (UniProt O77312): > 20 µM
IC50 (UniProt O97313): > 20 µM
IC50 (UniProt Q5MYR6): > 20 µM
IC50 (UniProt Q76NM3): > 20 µM
IC50 (UniProt Q8I0W9): > 20 µM
IC50 (UniProt Q8I1R6): > 20 µM
IC50 (UniProt Q8I1X5): > 20 µM
IC50 (UniProt Q8I2S6): > 20 µM
IC50 (UniProt Q8I353): > 20 µM
IC50 (UniProt Q8I374): > 20 µM
IC50 (UniProt Q8I3F0): > 20 µM
IC50 (UniProt Q8I3I5): > 20 µM
IC50 (UniProt Q8I3R0): > 20 µM
IC50 (UniProt Q8I3U9): > 20 µM
IC50 (UniProt Q8I467): > 20 µM
IC50 (UniProt Q8I4U5): > 20 µM
IC50 (UniProt Q8I4Y5): > 20 µM
IC50 (UniProt Q8I586): > 20 µM
IC50 (UniProt Q8I5D2): > 20 µM
IC50 (UniProt Q8I5H9): 14 µM
IC50 (UniProt Q8IAV1): > 20 µM
IC50 (UniProt Q8IB24): > 20 µM
IC50 (UniProt Q8IB44): > 20 µM
IC50 (UniProt Q8IB78): > 20 µM
IC50 (UniProt Q8IBC3): > 20 µM
IC50 (UniProt Q8IBM9): > 20 µM
IC50 (UniProt Q8IBN7): > 20 µM
IC50 (UniProt Q8ID43): > 20 µM
IC50 (UniProt Q8ID59): > 20 µM
IC50 (UniProt Q8IDM3): > 20 µM
IC50 (UniProt Q8IEH3): > 20 µM
IC50 (UniProt Q8IEU2): > 20 µM
IC50 (UniProt Q8IFN9): > 20 µM
IC50 (UniProt Q8IHY0): > 20 µM
IC50 (UniProt Q8IIE7): 0.177 µM
IC50 (UniProt Q8IIG6): > 20 µM
IC50 (UniProt Q8IIH7): > 20 µM
IC50 (UniProt Q8IIK4): > 20 µM
IC50 (UniProt Q8IIW5): > 20 µM
IC50 (UniProt Q8IKS6): > 20 µM
IC50 (UniProt Q8IKV8): > 20 µM
IC50 (UniProt Q8IKW5): > 20 µM
IC50 (UniProt Q8IL41): > 20 µM
IC50 (UniProt Q8ILE8): > 20 µM
IC50 (UniProt Q8ILS7): > 20 µM
IC50 (UniProt Q9TY98): > 20 µM
